# Assay results taken from patent US11110095B2, “Pyrimidine compounds as JAK kinase inhibitors” (THERAVANCE BIOPHARMA R&D IP, LLC, priority 2016, dated 2021).
# “Also recorded” adds a separate entry of the source.
# Columns and labels:
# [1] = Colon pharmacokinetics in rats; format: in vivo, Sprague Dawley rats; settings: rat, oral administration (summary statement)
# Method: The test compound was formulated in 0.5% methyl-cellulose in water and dosed via oral gavage at 3.2 mg/kg and 100 mg/kg to Sprague Dawley rats. At various time points (typically 0.5, 1, 3, 6, 24 hr) post dosing, blood samples were removed via cardiac puncture and intact colons were excised from the rats. Blood samples were centrifuged at 1500×g for 15 min to collect plasma. Colons were washed with ice cold phosphate buffered saline (PBS), weighed, and homogenized at a dilution of 1:10 in PBS. Plasma and colon levels of test compound were determined by LC-MS analysis against analytical standards constructed into a standard curve in the test matrix. A colon to plasma ratio was determined as the ratio of the colon AUC to the plasma AUC in μg hr/g.
# [2] = system: oxazolone-induced colitis; test: Mouse model of oxazolone-induced colitis; format: in vivo, BALB/C mice; settings: mice (summary statement)
# Method: Oxazolone-induced colitis is an experimental model that has a histological resemblance to human ulcerative colitis (Heller et al. […], 2002, 17, 629-638). Adult BALB/C mice from Harlan were used in the assay. On day 1, animals were lightly anesthetized with isoflurane and the hairs between the shoulder were carefully removed before oxazolone (4%, 150 μL, 4:1 acetone: olive oil formulation) or vehicle solution was slowly applied for skin sensitization. Seven days after skin sensitization, the mice were fasted overnight, anesthetized with isoflurane inhalation, and a 1 mL syringe equipped with a 3.5-F catheter, filled with oxazolone solution, was inserted carefully about 4 cm into the colon of the mouse. Following insertion, 50 μL of the oxazolone solution (1%, 1:1 ethanol:water formulation) was injected very slowly (over 30 sec using an injection pump) into the colon. […] Two-day post oxazolone intrarectal challenge, the Disease Activity Index (DAI) was assessed by treatment-blinded experimenters for each mouse according to the criteria score: stool consistency score (0, normal; 2, loose; 4, diarrhea), gross bleeding score (0, absence; 2, blood tinged; 4, presence), and weight loss score (0, none; 1, 1%-5%; 2, 5%-10%; 3, 10%-20%; 4, more than 20%); DAI=average of (stool consistency score+gross bleeding score+weight loss score). […]
# [3] = system: splenic NK, B and T cells; settings: mouse, in vivo; for B and T cell populations (spleen): po
# Method: Depletion of mouse splenic cells is an experimental model of immunosuppression (Kudlacz et al., Am. J. of Transplantation, 2004, 4, 51-57). The compound of Example 2 was assessed in the mouse splenic cell model following the same treatment paradigm as that used in the oxazolone-induced colitis model (Assay 8).
# The compound (1, 10 and 100 mg/kg, BID) and tofacitinib (30 and 60 mg/kg, BID) as a positive control were dosed orally for three days to naïve mice. Spleens were harvested 1 h post last dose and crushed immediately for cell subtype staining. Prior to fixation, fluorophore-labelled antibodies for CD19 (FITC; B cells), CD3e (PE; pan T cells) and DX5 (APC; NK cells) were incubated with splenocyte samples from each animal to allow for simultaneous, multiple subtype % analysis on the flow cytometer. The number of total spleen cells for each animal was measured by Scepter™ 2.0 Handheld Automated Cell Counter.
# The absolute number of lymphocyte subtype population (e.g., splenic B, T and NK cells) was calculated from the percentage of each subtype times total spleen cells for each animal. A one way ANOVA, with Dunnett's post hoc test, was used to compare the splenic lymphocytes number of the vehicle and test compound groups. The a level was set at p<0.05. Data were presented as the mean±SEM for each group.
# [4] = system: TPA-induced increase in ear thickness; test: Topical TPA-induced irritant contact dermatitis model in mice; format: in vivo, Balb/c mice; settings: mouse, topical 30-3000 μg per ear, 6 hours after TPA
# Method: The objective of this assay is to assess the anti-inflammatory effect in a model of acute dermatitis of test compounds being studied for cutaneous inflammatory conditions such as atopic dermatitis (Dong et al., J Pharmacol Exp Ther, 2013, 344, 436-446).
# Topical dermal application of phorbol ester 12-O-tetradecanoylphorbol-13-acetate (TPA) in mice causes an inflammatory response that is characterized by edema and neutrophil influx at the early phase (2-24 h) and by epidermal cell proliferation at the later phase (24-48 h) (Griffiths et al., Agents and Actions, 1988, 25, 344-351). Female Balb/c mice were topically administered with either vehicle (1:7 DMSO:acetone) or 20 μL of a solution of TPA (2.5 μg) in vehicle on each ear. At 30 min before and 15 min after TPA administration, either vehicle or the compound of Example 2 at doses of 30, 100, 300, 1000, and 3000 μg in vehicle was applied topically to each ear. The degree of inflammation was assessed as the change in ear thickness at 6 hours after TPA application.
# [5] = target: JAK3 (Homo sapiens (Human), UniProt P52333); test: LanthaScreen JAK biochemical assay, JAK3
# Method: A panel of four LanthaScreen JAK biochemical assays (JAK1, 2, 3 and Tyk2) were carried in a common kinase reaction buffer (50 mM HEPES, pH 7.5, 0.01% Brij-35, 10 mM MgCl2, and 1 mM EGTA). Recombinant GST-tagged JAK enzymes and a GFP-tagged STAT1 peptide substrate were obtained from Life Technologies.
# Serially diluted compounds were pre-incubated with each of the four JAK enzymes and the substrate in white 384-well microplates (Corning) at ambient temperature for 1h. ATP was subsequently added to initiate the kinase reactions in 10 μL total volume, with 1% DMSO. […] The plates were allowed to incubate at ambient temperature for 1h before being read on the EnVision reader (Perkin Elmer).
# For dose-response analysis, percent inhibition data were plotted vs. compound concentrations, and IC50 values were determined from a 4-parameter robust fit model with the Prism software (GraphPad Software). Results were expressed as pIC50 (negative logarithm of IC50) and subsequently converted to pKi (negative logarithm of dissociation constant, Ki) using the Cheng-Prusoff equation.
# [6] = Dynamic moisture sorption assessment; format: physicochemical; settings: 5% to 90% relative humidity; for weight gain: 25° C.
# Method: Dynamic moisture sorption (DMS) measurement was performed using a VTI atmospheric microbalance, SGA-100 system (VTI Corp., Hialeah, Fla. 33016). A weighed sample was used and the humidity was lowest possible value (close to 0% RH) at the start of the analysis. The DMS analysis consisted of an initial drying step (0% RH) for 120 minutes, followed by two cycles of sorption and desorption with a scan rate of 5% RH/step over the humidity range of 5% RH to 90% RH. The DMS run was performed isothermally at 25° C.
# Sequence of JAK3 (P52333 whole entry): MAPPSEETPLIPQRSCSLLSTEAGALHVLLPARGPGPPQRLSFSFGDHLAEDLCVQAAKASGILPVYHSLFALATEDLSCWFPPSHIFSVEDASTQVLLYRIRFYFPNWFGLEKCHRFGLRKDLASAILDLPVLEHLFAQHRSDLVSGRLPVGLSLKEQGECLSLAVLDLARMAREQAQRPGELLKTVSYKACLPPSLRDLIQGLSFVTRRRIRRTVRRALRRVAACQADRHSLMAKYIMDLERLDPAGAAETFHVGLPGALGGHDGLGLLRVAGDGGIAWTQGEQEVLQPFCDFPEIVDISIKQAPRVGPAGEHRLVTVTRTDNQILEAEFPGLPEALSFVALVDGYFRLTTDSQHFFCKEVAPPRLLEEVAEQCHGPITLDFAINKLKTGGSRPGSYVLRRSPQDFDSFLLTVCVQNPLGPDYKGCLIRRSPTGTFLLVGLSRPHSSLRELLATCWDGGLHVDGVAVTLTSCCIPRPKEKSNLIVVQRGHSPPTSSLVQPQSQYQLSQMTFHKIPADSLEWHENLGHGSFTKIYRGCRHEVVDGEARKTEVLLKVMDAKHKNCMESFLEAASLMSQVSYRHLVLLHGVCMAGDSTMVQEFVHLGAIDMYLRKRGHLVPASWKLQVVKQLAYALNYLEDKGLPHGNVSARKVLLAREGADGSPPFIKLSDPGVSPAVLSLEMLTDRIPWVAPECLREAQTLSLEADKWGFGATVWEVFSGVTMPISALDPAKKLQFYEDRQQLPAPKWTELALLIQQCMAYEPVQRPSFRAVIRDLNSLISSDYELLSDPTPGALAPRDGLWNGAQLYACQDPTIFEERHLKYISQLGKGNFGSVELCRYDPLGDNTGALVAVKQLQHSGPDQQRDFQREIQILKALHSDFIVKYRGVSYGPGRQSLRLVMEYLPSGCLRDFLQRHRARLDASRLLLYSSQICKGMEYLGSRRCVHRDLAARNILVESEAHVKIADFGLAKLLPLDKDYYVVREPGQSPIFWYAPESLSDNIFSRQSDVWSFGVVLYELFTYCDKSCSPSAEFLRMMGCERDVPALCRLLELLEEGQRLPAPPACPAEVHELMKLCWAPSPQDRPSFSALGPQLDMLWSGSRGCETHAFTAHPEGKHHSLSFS
smiles,measurement,setting,value
"COc1cc(Nc2cc(CO)[nH]n2)nc(N(C)[C@@H]2C[C@H]3CCC[C@@H](C2)N3S(=O)(=O)N2CC(C#N)C2)n1 [Example 2, 1-(((1R,3s,5S)-3-((4-((5-(Hydroxymethyl)-1H-pyrazol-3-yl)amino)-6-methoxypyrimidin-2-yl)(methyl)amino)-9-azabicyclo[3.3.1]nonan-9-yl)sulfonyl)azetidine-3-carbonitrile]",ratio of exposure in the colon to exposure in plasma,[1],greater than 250
same,activity in the oxazolone-induced colitis model,[2],demonstrated activity
same,effect of immunosuppression,[3],minimal effect of immunosuppression
same,B and T cell populations (spleen),[3],No treatment effect
same,inhibition of TPA-induced increase in ear thickness,[4],dose- and concentration-dependent effect; also recorded: dose- and concentration-dependent inhibition
"COc1cc(Nc2cc(CO)[nH]n2)nc(N(C)[C@@H]2C[C@H]3CCC[C@@H](C2)N3C(=O)C(F)F)n1 [Example 9, 2,2-difluoro-1-((1R,3s,5S)-3-((4-((5-(hydroxymethyl)-1H-pyrazol-3-yl)amino)-6-methoxypyrimidin-2-yl)(methyl)amino)-9-azabicyclo[3.3.1]nonan-9-yl)ethan-1-one]",JAK 3 (pKi),[5],D (D represents a pKi value between 7.5 and 8 (Ki between 31.6 nM and 10 nM))
"COc1cc(Nc2cc(CO)[nH]n2)nc(N(C)[C@@H]2C[C@H]3CCC[C@@H](C2)N3S(=O)(=O)N2CC(C#N)C2)n1 [Form I, 1-(((1R,3s,5S)-3-((4-((5-(hydroxymethyl)-1H-pyrazol-3-yl)amino)-6-methoxypyrimidin-2-yl)(methyl)amino)-9-azabicyclo[3.3.1]nonan-9-yl)sulfonyl)azetidine-3-carbonitrile]",hygroscopicity,[6],non-hygroscopic
same,weight gain,[6],less than 0.4%
same,weight gain,"[6]; listed as Crystalline 1-((1R,3s,5S)-3-((4-((5-(hydroxymethyl)-1H-pyrazol-3-yl)amino)-6-me)))",less than 0.4%
"COc1cc(Nc2cc(CO)[nH]n2)nc(N(C)[C@@H]2C[C@H]3CCC[C@@H](C2)N3S(=O)(=O)N2CC(C#N)C2)n1 [Form II, 1-(((1R,3s,5S)-3-((4-((5-(hydroxymethyl)-1H-pyrazol-3-yl)amino)-6-methoxypyrimidin-2-yl)(methyl)amino)-9-azabicyclo[3.3.1]nonan-9-yl)sulfonyl)azetidine-3-carbonitrile]",weight gain,[6],about 1.2%
"C[C@@H]1CCN(C(=O)CC#N)C[C@@H]1N(C)c1ncnc2[nH]ccc12 [tofacitinib, reference compound]",B and T cell populations (spleen),[3],No treatment effect
